In the supplement of paper PMC10331698:
± gives the standard deviation of the averaged measurements.

How the values were obtained:
Assay in all cases: level (log10 ratio to DMSO vehicle control); higher = higher biomarker level / cell amount than vehicle control
[1] = compound: C=C(C)C(=O)OCCC(F)(F)C(F)(F)C(F)(F)C(F)(F)C(F)(F)C(F)(F)F [6:2 Fluorotelomer methacrylate]; details: in DMSO
Protocol: (§1)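 BioMAP Diversity Plus panel of 12 human primary cell co-culture systems (3C, 4H, LPS, SAg, BT, BF4T, BE3C, CASM3C, HDF3CGF, KF3CT, MyoF, Mphg). Compounds were added 1 h before stimulation and left for 24 h (MyoF 48 h; BT 72 h for soluble read-outs or 6 d for IgG). Biomarkers were read by ELISA, cytotoxicity by SRB, PBMC viability and proliferation by Alamar Blue. Each well value was divided by the mean of 8 DMSO control wells on the same plate and log10 transformed; duplicate blinded samples were tested at 4 concentrations.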

[2] = compound: C=CC(=O)OCC(F)(F)C(F)(F)C(F)(F)COC(=O)C=C [1H,1H,5H,5H-Perfluoro-1,5-pentanediol diacrylate]; details: 6700 nM; in DMSO
Protocol: as §1

[3] = compound: COC(=O)C(F)(F)C(F)(F)OC(F)(C(F)(F)F)C(F)(F)OC(F)=C(F)F [Methyl perfluoro(3-(1-ethenyloxypropan-2-yloxy)propanoate)]; details: in DMSO
Protocol: as §1

[4] = compound: FC(F)(F)C(F)(F)C(F)(F)C(F)(F)C(F)(F)C(F)(F)C(F)(F)I [1-Iodopentadecafluoroheptane]; details: in DMSO
Protocol: as §1

[5] = compound: FC(F)(F)C(F)(F)C(F)(F)C(F)(F)C(F)(F)C(F)(F)CC1CO1 [3-(Perfluorohexyl)-1,2-epoxypropane]; details: in DMSO
Protocol: as §1

[6] = compound: FC(F)(F)C(F)(F)C(F)(F)CC1CO1 [1H,1H-Heptafluorobutyl epoxide]; details: in DMSO
Protocol: as §1

[7] = compound: FC(F)(F)C(F)(F)C(F)(F)CI [Heptafluorobutyl iodide]; details: in DMSO
Protocol: as §1

[8] = compound: FC(F)(F)C(F)(F)CNCC(F)(F)C(F)(F)F [Bis(1H,1H-perfluoropropyl)amine]; details: in DMSO
Protocol: as §1

[9] = compound: NC(=O)C(F)(F)C(F)(F)C(F)(F)C(F)(F)C(N)=O [Octafluoroadipamide]; details: in DMSO
Protocol: as §1

[10] = compound: NC(=O)C(F)(F)C(F)(F)C(F)(F)C(F)(F)F [Nonafluoropentanamide]; details: in DMSO
Protocol: as §1

[11] = compound: NC(=O)C(F)(F)C(F)(F)C(F)(F)C(F)F; details: in DMSO
Protocol: as §1

[12] = compound: NS(=O)(=O)C(F)(F)C(F)(F)C(F)(F)C(F)(F)C(F)(F)C(F)(F)F [Perfluorohexanesulfonamide]; details: in DMSO
Protocol: as §1

[13] = compound: O=C(O)C(F)(F)C(F)(F)C(F)(F)C(F)(F)C(F)(F)C(F)(F)C(F)(F)C(F)(F)C(F)(F)C(F)F [11-H-Perfluoroundecanoic acid]; details: in DMSO
Protocol: as §1

[14] = compound: O=C(O)C=CC(F)(C(F)(F)F)C(F)(F)F [3-(Perfluoroisopropyl)-2-propenoic acid]; details: in DMSO
Protocol: as §1

[15] = compound: O=S(=O)(Cl)C(F)(F)C(F)(F)C(F)(F)C(F)(F)C(F)(F)C(F)(F)C(F)(F)C(F)(F)F [Perfluoro-1-octanesulfonyl chloride]; details: in DMSO
Protocol: as §1

[16] = compound: O=S(=O)(F)C(F)(F)C(F)(F)C(F)(F)C(F)(F)C(F)(F)C(F)(F)C(F)(F)C(F)(F)F [Perfluorooctanesulfonyl fluoride]; details: in DMSO
Protocol: as §1

[17] = compound: O=S(=O)(O)C(F)(F)C(F)(F)C(F)(F)C(F)(F)C(F)(F)C(F)(F)C(F)(F)C(F)(F)C(F)(F)C(F)(F)F [Sodium perfluorodecanesulfonate]; details: in DMSO
Protocol: as §1

[18] = compound: O=S(=O)(O)CCC(F)(F)C(F)(F)C(F)(F)C(F)(F)C(F)(F)C(F)(F)F [6:2 Fluorotelomer sulfonic acid]; details: in DMSO
Protocol: as §1

[19] = compound: OCC(F)(F)C(F)(F)C(F)(F)CO [Hexafluoroamylene glycol]; details: in DMSO
Protocol: as §1

For MyoF:TIMP-1, the “level (log10)” value ([1]; 6700 nM) was -0.036 ± 0.062, the “level (log10)” value ([1]; 20000 nM) was -0.0135 ± 0.066 and the “level (log10)” value ([1]; 60000 nM) was -0.017 ± 0.041. For the same test system, the “level (log10)” value [2] was -0.002 ± 0.0014, the “level (log10)” value ([3]; 6700 nM) was 0.018 ± 0.011 and the “level (log10)” value ([3]; 20000 nM) was 0.0085 ± 0.039. For the same test system, the “level (log10)” value ([4]; 6700 nM) was 0.049 ± 0.0057, the “level (log10)” value ([4]; 20000 nM) was -0.0605 ± 0.0092 and the “level (log10)” value ([5]; 6700 nM) was -0.0295 ± 0.046. The “level (log10)” value ([5]; 20000 nM) was -0.028 ± 0.027, the “level (log10)” value ([5]; 60000 nM) was 0.033 ± 0.03 and the “level (log10)” value ([6]; 6700 nM) was -0.025 ± 0.018. For the same test system, the “level (log10)” value ([6]; 20000 nM) was -0.023 ± 0.035, the “level (log10)” value ([6]; 60000 nM) was -0.0125 ± 0.015 and the “level (log10)” value ([7]; 6700 nM) was -0.059 ± 0.088. The “level (log10)” value ([7]; 20000 nM) was -0.068 ± 0.068, the “level (log10)” value ([7]; 60000 nM) was -0.0755 ± 0.063 and the “level (log10)” value ([8]; 6700 nM) was -0.0225 ± 0.039. The “level (log10)” value ([8]; 20000 nM) was 0.0005 ± 0.067, the “level (log10)” value ([8]; 60000 nM) was -0.0035 ± 0.0064 and the “level (log10)” value ([9]; 6700 nM) was -0.0325 ± 0.023. For the same test system, the “level (log10)” value ([9]; 20000 nM) was 0.004 ± 0.033, the “level (log10)” value ([9]; 60000 nM) was 0.021 ± 0.021 and the “level (log10)” value ([10]; 6700 nM) was -0.019 ± 0.0057. The “level (log10)” value ([10]; 20000 nM) was 0.01 ± 0.035, the “level (log10)” value ([10]; 60000 nM) was 0.001 ± 0.0085 and the “level (log10)” value ([11]; 6700 nM) was -0.031 ± 0.011. The “level (log10)” value ([11]; 20000 nM) was -0.024 ± 0.023, the “level (log10)” value ([11]; 60000 nM) was -0.0505 ± 0.00071 and the “level (log10)” value ([12]; 6700 nM) was 0.019 ± 0.037. The “level (log10)” value ([12]; 20000 nM) was 0.017 ± 0.045, the “level (log10)” value ([12]; 60000 nM) was 0.021 ± 0.051 and the “level (log10)” value ([13]; 6700 nM) was 0.0255 ± 0.029. For the same test system, the “level (log10)” value ([13]; 20000 nM) was 0.063 ± 0.0057, the “level (log10)” value ([14]; 6700 nM) was -0.0285 ± 0.00071 and the “level (log10)” value ([14]; 20000 nM) was -0.0085 ± 0.013. The “level (log10)” value ([14]; 60000 nM) was 0.0535 ± 0.037, the “level (log10)” value ([15]; 6700 nM) was -0.009 ± 0.044 and the “level (log10)” value ([15]; 20000 nM) was 0.0035 ± 0.043. For the same test system, the “level (log10)” value ([15]; 60000 nM) was 0.148 ± 0.031, the “level (log10)” value ([16]; 6700 nM) was 0.006 ± 0.0099 and the “level (log10)” value ([16]; 20000 nM) was 0.0035 ± 0.016. The “level (log10)” value ([16]; 60000 nM) was 0.004 ± 0.0014, the “level (log10)” value ([17]; 1500 nM) was -0.037 ± 0.014 and the “level (log10)” value ([17]; 4400 nM) was -0.0445 ± 0.016. The “level (log10)” value ([17]; 13000 nM) was -0.0415 ± 0.04, the “level (log10)” value ([17]; 40000 nM) was -0.0725 ± 0.044 and the “level (log10)” value ([18]; 6700 nM) was -0.032 ± 0.052. The “level (log10)” value ([18]; 20000 nM) was 0.031 ± 0.042, the “level (log10)” value ([18]; 60000 nM) was 0.097 ± 0.011 and the “level (log10)” value ([19]; 6700 nM) was -0.041 ± 0.05. The “level (log10)” value ([19]; 20000 nM) was -0.0385 ± 0.06 and the “level (log10)” value ([19]; 60000 nM) was -0.039 ± 0.065.
With SAg:CXCL8/IL-8 the “level (log10)” value ([1]; 6700 nM) was 0.0095 ± 0.005, the “level (log10)” value ([1]; 20000 nM) was -0.0165 ± 0.0021 and the “level (log10)” value ([1]; 60000 nM) was 0.044 ± 0.011. The “level (log10)” value [2] was -0.259 ± 0.13, the “level (log10)” value ([3]; 6700 nM) was -0.0155 ± 0.026 and the “level (log10)” value ([3]; 20000 nM) was 0.055 ± 0.15. For the same test system, the “level (log10)” value ([4]; 6700 nM) was -0.034 ± 0.035, the “level (log10)” value ([4]; 20000 nM) was 0.0055 ± 0.073 and the “level (log10)” value ([5]; 6700 nM) was -0.0135 ± 0.021. For the same test system, the “level (log10)” value ([5]; 20000 nM) was -0.029 ± 0.013, the “level (log10)” value ([5]; 60000 nM) was 0.0075 ± 0.026 and the “level (log10)” value ([6]; 6700 nM) was -0.012 ± 0.05. For the same test system, the “level (log10)” value ([6]; 20000 nM) was -0.011 ± 0.021, the “level (log10)” value ([6]; 60000 nM) was 0.005 ± 0.027 and the “level (log10)” value ([7]; 6700 nM) was -0.053 ± 0.04. For the same test system, the “level (log10)” value ([7]; 20000 nM) was -0.0345 ± 0.019, the “level (log10)” value ([7]; 60000 nM) was -0.02 ± 0.072 and the “level (log10)” value ([8]; 6700 nM) was 0.0265 ± 0.059. The “level (log10)” value ([8]; 20000 nM) was -0.0085 ± 0.023, the “level (log10)” value ([8]; 60000 nM) was 0.0095 ± 0.053 and the “level (log10)” value ([9]; 6700 nM) was -0.001 ± 0.04. For the same test system, the “level (log10)” value ([9]; 20000 nM) was 0.0075 ± 0.015, the “level (log10)” value ([9]; 60000 nM) was 0.02 ± 0.0014 and the “level (log10)” value ([10]; 6700 nM) was -0.0285 ± 0.039. The “level (log10)” value ([10]; 20000 nM) was -0.027 ± 0.02, the “level (log10)” value ([10]; 60000 nM) was -0.0305 ± 0.076 and the “level (log10)” value ([11]; 6700 nM) was -0.0055 ± 0.037. The “level (log10)” value ([11]; 20000 nM) was 0.0075 ± 0.015, the “level (log10)” value ([11]; 60000 nM) was 0.0055 ± 0.018 and the “level (log10)” value ([12]; 6700 nM) was -0.0225 ± 0.021. For the same test system, the “level (log10)” value ([12]; 20000 nM) was -0.088 ± 0.0099, the “level (log10)” value ([12]; 60000 nM) was -0.237 ± 0.088 and the “level (log10)” value ([13]; 6700 nM) was -0.0115 ± 0.019. The “level (log10)” value ([13]; 20000 nM) was -0.0115 ± 0.05, the “level (log10)” value ([14]; 6700 nM) was -0.0185 ± 0.005 and the “level (log10)” value ([14]; 20000 nM) was -0.0015 ± 0.033. For the same test system, the “level (log10)” value ([14]; 60000 nM) was 0.009 ± 0.028, the “level (log10)” value ([15]; 6700 nM) was -0.011 ± 0.011 and the “level (log10)” value ([15]; 20000 nM) was 0.012 ± 0.0099. The “level (log10)” value ([15]; 60000 nM) was 0.093 ± 0.016, the “level (log10)” value ([16]; 6700 nM) was 0.039 ± 0.1 and the “level (log10)” value ([16]; 20000 nM) was -0.012 ± 0.025. For the same test system, the “level (log10)” value ([16]; 60000 nM) was 0.012 ± 0.058, the “level (log10)” value ([17]; 1500 nM) was 0.0165 ± 0.025 and the “level (log10)” value ([17]; 4400 nM) was -0.0175 ± 0.016. For the same test system, the “level (log10)” value ([17]; 13000 nM) was 0.06 ± 0.0042, the “level (log10)” value ([17]; 40000 nM) was 0.126 ± 0.019 and the “level (log10)” value ([18]; 6700 nM) was -0.012 ± 0.025. For the same test system, the “level (log10)” value ([18]; 20000 nM) was 0.0325 ± 0.039, the “level (log10)” value ([18]; 60000 nM) was 0.064 ± 0.03 and the “level (log10)” value ([19]; 6700 nM) was -0.0285 ± 0.073. The “level (log10)” value ([19]; 20000 nM) was -0.0175 ± 0.0092 and the “level (log10)” value ([19]; 60000 nM) was 0.052 ± 0.035.
